Reference: US11076594B2, “Pyrazolone compound or salt thereof, preparation method therefor, herbicide composition and use thereof” (QINGDAO KINGAGROOT CHEMICAL COMPOUNDS CO., LTD., priority 2015, dated 2021)

How the values were obtained:
Type in all cases: in vivo
Settings in all cases: post-emergence spray at 4-5 leaf stage, 250 g/ha active ingredient with 450 kg/ha water, rated after 3 weeks in greenhouse
Indian mallow = assay: weed control effect in post-emergence stage (Table 1); parameters: key: Level 10: completely dead; Level 9: above 95% growth control rate; Level 8: above 90% growth control rate; Level 7: above 80% growth control rate; Level 6: above 70% growth control rate; Level 5: above 60% growth control rate; Level 4: above 50% growth control rate; Level 3: above 20% growth control rate; Level 2: 5%-20% growth control rate; Level 1: below 5% growth control rate
Procedure: (§1) The activity level standard of harmful plant destruction (i.e. growth control rate) is as follows: The above described growth control rate is fresh weight control rate. Monocotyledonous and dicotyledonous weed seeds and main crop seeds (i.e. wheat, corn, rice, soybean, cotton, oilseed, millet and sorghum.) were put into a plastic pot loaded with soil. Then covered with 0.5-2 cm soil, the seeds were allowed to grow in good greenhouse environment. The test plants were treated at 4-5 leaf stage 2-3 weeks after sowing. The test compounds of the invention were dissolved with acetone respectively, then added with 80 tween and diluted by certain amount of water to certain concentration. The solution was sprayed to the plants with a sprayer. Then the plants were cultured for 3 weeks in the greenhouse.

bidens bipinnata = assay: as above; parameters: key: Level 10: completely dead; Level 9: above 95% growth control rate; Level 8: above 90% growth control rate; Level 7: above 80% growth control rate; Level 6: above 70% growth control rate; Level 5: above 60% growth control rate; Level 4: above 50% growth control rate; Level 3: above 20% growth control rate; Level 2: 5%-20% growth control rate; Level 1: below 5% growth control rate
Procedure: as §1

crab grass = assay: as above; parameters: key: Level 10: completely dead; Level 9: above 95% growth control rate; Level 8: above 90% growth control rate; Level 7: above 80% growth control rate; Level 6: above 70% growth control rate; Level 5: above 60% growth control rate; Level 4: above 50% growth control rate; Level 3: above 20% growth control rate; Level 2: 5%-20% growth control rate; Level 1: below 5% growth control rate
Procedure: as §1

echinochloa = assay: as above; parameters: key: Level 10: completely dead; Level 9: above 95% growth control rate; Level 8: above 90% growth control rate; Level 7: above 80% growth control rate; Level 6: above 70% growth control rate; Level 5: above 60% growth control rate; Level 4: above 50% growth control rate; Level 3: above 20% growth control rate; Level 2: 5%-20% growth control rate; Level 1: below 5% growth control rate
Procedure: as §1

foxtail = assay: as above; parameters: key: Level 10: completely dead; Level 9: above 95% growth control rate; Level 8: above 90% growth control rate; Level 7: above 80% growth control rate; Level 6: above 70% growth control rate; Level 5: above 60% growth control rate; Level 4: above 50% growth control rate; Level 3: above 20% growth control rate; Level 2: 5%-20% growth control rate; Level 1: below 5% growth control rate
Procedure: as §1

corn = assay: post-emergence stage experiment, crop (Table 1)
Procedure: as §1

wheat = assay: post-emergence stage experiment, crop (Table 1)
Procedure: as §1

rice = assay: post-emergence stage experiment, crop (Table 1)
Procedure: as §1

rorippa indica = assay: weed control effect in post-emergence stage (Table 1); parameters: key: Level 10: completely dead; Level 9: above 95% growth control rate; Level 8: above 90% growth control rate; Level 7: above 80% growth control rate; Level 6: above 70% growth control rate; Level 5: above 60% growth control rate; Level 4: above 50% growth control rate; Level 3: above 20% growth control rate; Level 2: 5%-20% growth control rate; Level 1: below 5% growth control rate
Procedure: as §1

effect on crop, Wheat (level) (wheat) | SMILES | weed control effect, Indian mallow (level) (Indian mallow) | weed control effect, Bidens bipinnata (level) (bidens bipinnata) | weed control effect, Crab grass (level) (crab grass) | weed control effect, Echinochloa (level) (echinochloa) | weed control effect, Green foxtail (level) (foxtail) | effect on crop, Corn (level) (corn) | effect on crop, Rice (level) (rice) | weed control effect, Rorippa indica (level) (rorippa indica)
2 (Level 2: 5%-20% growth control rate) | Cn1nc(C2CC2)c(C(=O)c2ccc(C(F)(F)F)c(N3CCCCCC3=O)c2Cl)c1O [Compound 059] | 10 |  | 5 (Level 5: above 60% growth control rate) | 6 (Level 6: above 70% growth control rate) | 9 (Level 9: above 95% growth control rate) | 1 (Level 1: below 5% growth control rate) | 3 (Level 3: above 20% growth control rate) | 10
0 | Cn1cc(C(=O)Oc2c(C(=O)c3ccc(C(F)(F)F)c(-n4cccn4)c3Cl)cnn2C)cn1 [Compound 066] | 10 | 6 (Level 6: above 70% growth control rate) | 6 (Level 6: above 70% growth control rate) | 6 (Level 6: above 70% growth control rate) | 10 | 3 (Level 3: above 20% growth control rate) | 3 (Level 3: above 20% growth control rate) | 
2 (Level 2: 5%-20% growth control rate) | Cc1nn(C)cc1C(=O)Oc1c(C(=O)c2ccc(C(F)(F)F)c(-n3cccn3)c2Cl)c(C2CC2)nn1C [Compound 075] | 10 |  | 4 (Level 4: above 50% growth control rate) | 6 (Level 6: above 70% growth control rate) | 10 | 3 (Level 3: above 20% growth control rate) | 7 (Level 7: above 80% growth control rate) | 10
2 (Level 2: 5%-20% growth control rate) | Cn1cc(C(=O)Oc2c(C(=O)c3ccc(C(F)(F)F)c(-n4cccn4)c3Cl)c(C3CC3)nn2C)cn1 [Compound 076] | 10 | 4 (Level 4: above 50% growth control rate) | 5 (Level 5: above 60% growth control rate) | 7 (Level 7: above 80% growth control rate) | 10 | 4 (Level 4: above 50% growth control rate) | 9 (Level 9: above 95% growth control rate) | 

SMILES | effect on crop, Wheat (level) (wheat) | weed control effect, Indian mallow (level) (Indian mallow) | weed control effect, Bidens bipinnata (level) (bidens bipinnata) | weed control effect, Crab grass (level) (crab grass) | weed control effect, Echinochloa (level) (echinochloa) | weed control effect, Green foxtail (level) (foxtail) | effect on crop, Corn (level) (corn) | effect on crop, Rice (level) (rice) | weed control effect, Rorippa indica (level) (rorippa indica)
Cn1cc(C(=O)Oc2c(C(=O)c3ccc(C(F)(F)F)c(N4CCCC4=O)c3Cl)cnn2C)cn1 [Compound 017] | 1 (Level 1: below 5% growth control rate) | 10 | 5 (Level 5: above 60% growth control rate) | 10 | 6 (Level 6: above 70% growth control rate) | 10 | 4 (Level 4: above 50% growth control rate) | 7 (Level 7: above 80% growth control rate) | 
Cc1nn(C)cc1C(=O)Oc1c(C(=O)c2ccc(C(F)(F)F)c(N3CCCCCC3=O)c2Cl)c(C2CC2)nn1C [Compound 062] | 3 (Level 3: above 20% growth control rate) | 10 |  | 8 (Level 8: above 90% growth control rate) | 7 (Level 7: above 80% growth control rate) | 3 (Level 3: above 20% growth control rate) | 1 (Level 1: below 5% growth control rate) | 5 (Level 5: above 60% growth control rate) | 10
